{
  "source": "paper PMC9487510",
  "about": "“A Novel Oral GyrB/ParE Dual Binding Inhibitor Effective against Multidrug-Resistant Neisseria gonorrhoeae and Other High-Threat Pathogens” (Antimicrobial Agents and Chemotherapy, 2022)",
  "key": {"[1]": {"test_system": "N. gonorrhoeae clinical isolates", "experiment": "MIC, agar dilution (CLSI)", "format": "cell-based, Neisseria gonorrhoeae", "settings": "Neisseria gonorrhoeae; for MIC: read-out: MIC"}, "[2]": {"test_system": "vancomycin-resistant enterococci (VRE)", "experiment": "MIC, in vitro susceptibility testing (CLSI)", "format": "cell-based", "settings": "Enterococcus"}, "[3]": {"test_system": "MRSE", "experiment": "MIC, in vitro susceptibility testing (CLSI)", "format": "cell-based, Staphylococcus epidermidis", "settings": "for MIC: Staphylococcus epidermidis, MRSE, read-out: MIC"}, "[4]": {"experiment": "Liver microsome stability, mouse", "format": "in vitro ADME", "settings": "male, CD-1, mouse, liver microsomes, pH 7.4", "experimental": "Liver microsome stability assays were performed by BioDuro Inc. Human and mouse (CD-1 male) liver microsomes were used. […] Next, 50 μL of reaction buffer was added to solution and mixed via pipetting up and down 6 times. At each time point of 0, 30, and 60 min, an aliquot of 20 μL was removed from each tube. Liver microsomes (LM) working solution was prepared in 0.05 M phosphate reaction buffer (pH = 7.4) to a final concentration of 1.27 mg/mL. NADPH solution was prepared in 0.05 M phosphate buffer to afford a 5 mM buffer solution. […] After vortexing and incubating for 5 min (37°C), 50 μL of NADPH solution was added and mixed via pipetting. At each time point of 0, 5, 15, 30, and 60 min, an aliquot of 20 μL was removed from each tube. Next, 250 μL of quenching solution was aliquoted to quench the reaction, which was then vortexed for 1 min and placed on ice for 40 min. After centrifugation at 4,000 × g for 15 min, 100 μL of supernatant was transferred using a multichannel pipette to 0.65-mL tubes. Samples were diluted with MeOH: H2O (1:1) as necessary. Samples were analyzed by high-pressure liquid chromatography coupled to tandem mass spectrometry (LC/MS/MS) performed on a Sciex Applied Biosystems Qtrap 4000 triple-quadrupole mass spectrometer coupled to a Shimadzu HPLC system to quantify the remaining compound. Data were processed using Analyst software (version 1.4.2; Applied Biosystems Sciex). […] Metabolite identification on the microsomal extracts was performed using a Q-Exactive HRMS coupled with an Ultimate 3000 HPLC system and a Kinetix C18 2.1 × 50-mm 2.6-μm HPLC column."}, "[5]": {"experiment": "Liver microsome stability, human", "format": "in vitro ADME", "settings": "liver microsomes", "experimental": "Liver microsome stability assays were performed by BioDuro Inc. Human and mouse (CD-1 male) liver microsomes were used. […] Next, 50 μL of reaction buffer was added to solution and mixed via pipetting up and down 6 times. At each time point of 0, 30, and 60 min, an aliquot of 20 μL was removed from each tube. Liver microsomes (LM) working solution was prepared in 0.05 M phosphate reaction buffer (pH = 7.4) to a final concentration of 1.27 mg/mL. NADPH solution was prepared in 0.05 M phosphate buffer to afford a 5 mM buffer solution. […] After vortexing and incubating for 5 min (37°C), 50 μL of NADPH solution was added and mixed via pipetting. At each time point of 0, 5, 15, 30, and 60 min, an aliquot of 20 μL was removed from each tube. Next, 250 μL of quenching solution was aliquoted to quench the reaction, which was then vortexed for 1 min and placed on ice for 40 min. After centrifugation at 4,000 × g for 15 min, 100 μL of supernatant was transferred using a multichannel pipette to 0.65-mL tubes. Samples were diluted with MeOH: H2O (1:1) as necessary. Samples were analyzed by high-pressure liquid chromatography coupled to tandem mass spectrometry (LC/MS/MS) performed on a Sciex Applied Biosystems Qtrap 4000 triple-quadrupole mass spectrometer coupled to a Shimadzu HPLC system to quantify the remaining compound. […]"}, "[6]": {"test_system": "Neisseria", "format": "cell-based, N. gonorrhoeae", "settings": "at 1× MIC; resistance not observed; data not shown"}, "[7]": {"test_system": "MRSA", "format": "cell-based, S. aureus", "settings": "at 1× MIC; resistance not observed; data not shown"}, "[8]": {"target": "hERG K+ channel (Homo sapiens, UniProt Q12809)", "sequence (Q12809 whole entry)": "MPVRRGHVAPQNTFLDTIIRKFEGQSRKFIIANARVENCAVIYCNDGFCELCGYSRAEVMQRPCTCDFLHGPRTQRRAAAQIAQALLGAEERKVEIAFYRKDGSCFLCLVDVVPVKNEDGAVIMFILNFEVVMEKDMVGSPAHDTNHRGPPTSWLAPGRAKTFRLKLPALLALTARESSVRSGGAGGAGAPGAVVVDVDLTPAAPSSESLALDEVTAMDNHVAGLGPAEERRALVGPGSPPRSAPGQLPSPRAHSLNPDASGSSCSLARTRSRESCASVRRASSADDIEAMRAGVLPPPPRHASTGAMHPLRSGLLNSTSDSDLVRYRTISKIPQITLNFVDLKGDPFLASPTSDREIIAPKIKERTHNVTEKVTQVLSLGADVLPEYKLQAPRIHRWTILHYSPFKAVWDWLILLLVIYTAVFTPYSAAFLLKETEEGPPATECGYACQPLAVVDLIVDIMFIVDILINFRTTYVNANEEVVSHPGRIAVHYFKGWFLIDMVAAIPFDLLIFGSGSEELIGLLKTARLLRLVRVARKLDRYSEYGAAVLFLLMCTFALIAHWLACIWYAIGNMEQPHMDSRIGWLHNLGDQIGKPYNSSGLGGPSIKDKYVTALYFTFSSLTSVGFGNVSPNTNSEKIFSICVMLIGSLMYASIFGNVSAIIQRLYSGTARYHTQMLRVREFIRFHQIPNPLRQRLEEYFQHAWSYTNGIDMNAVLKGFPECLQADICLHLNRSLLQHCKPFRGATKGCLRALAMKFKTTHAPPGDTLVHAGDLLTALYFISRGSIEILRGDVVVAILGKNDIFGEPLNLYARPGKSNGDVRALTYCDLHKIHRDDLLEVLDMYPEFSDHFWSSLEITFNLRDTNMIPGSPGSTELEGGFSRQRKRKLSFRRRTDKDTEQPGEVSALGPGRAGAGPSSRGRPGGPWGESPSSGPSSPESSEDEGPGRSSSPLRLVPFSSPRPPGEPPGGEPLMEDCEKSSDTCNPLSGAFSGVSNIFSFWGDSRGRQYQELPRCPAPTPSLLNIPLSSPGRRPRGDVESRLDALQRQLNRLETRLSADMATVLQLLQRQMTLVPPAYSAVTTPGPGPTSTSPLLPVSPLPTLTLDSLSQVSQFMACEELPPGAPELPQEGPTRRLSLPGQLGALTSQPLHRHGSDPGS", "experiment": "hERG inhibition, whole-cell patch clamp in HEK-293 cells", "settings": "pH 7.4"}},
  "note": "Like-named read-outs stand apart in the source and are kept apart here.",
  "data": [
    {"smiles": "CNc1cc(F)cc2c1[nH]c1nc(Oc3cnc(C)nc3)nc(N3CCC4(CC3)CO[C@@H](CO)C4)c12", "note": "[JSF-2414]", "values": [
      {"measurement": "MIC", "setting": "[1]; strain CDC61 (GCREF2013 006)", "value": 7.8, "unit": "ng/mL"},
      {"measurement": "MIC", "setting": "[1]; strain CDC62 (GCREF2013 007)", "value": 16, "unit": "ng/mL"},
      {"measurement": "MIC", "setting": "[1]; strain CDC63 (GCREF2013 008)", "value": 7.8, "unit": "ng/mL"},
      {"measurement": "MIC", "setting": "[1]; strain CDC64 (GCREF2013 009)", "value": 16, "unit": "ng/mL"},
      {"measurement": "MIC", "setting": "[1]; strain CDC65 (GCREF2013 010)", "value": 7.8, "unit": "ng/mL"},
      {"measurement": "MIC", "setting": "[1]; strain CDC66 (GCREF2013 011)", "value": 16, "unit": "ng/mL"},
      {"measurement": "MIC", "setting": "[1]; strain CDC67 (GCREF2013 014)", "value": 7.8, "unit": "ng/mL"},
      {"measurement": "MIC", "setting": "[1]; strain CDC68 (GCREF2013 016)", "value": 2, "unit": "ng/mL"},
      {"measurement": "MIC", "setting": "[1]; strain CDC69 (GCREF2013 017)", "value": 2, "unit": "ng/mL"},
      {"measurement": "MIC", "setting": "[1]; strain CDC70 (GCREF2013 018)", "value": 3.9, "unit": "ng/mL"},
      {"measurement": "MIC", "setting": "[1]; strain CDC71 (GCREF2013 019)", "value": 16, "unit": "ng/mL"},
      {"measurement": "MIC", "setting": "[1]; strain CDC72 (GCREF2013 020)", "value": 7.8, "unit": "ng/mL"},
      {"measurement": "MIC", "setting": "[1]; strain CDC73 (GCREF2013 021)", "value": 16, "unit": "ng/mL"},
      {"measurement": "MIC", "setting": "[1]; strain CDC74 (GCREF2013 022)", "value": 16, "unit": "ng/mL"},
      {"measurement": "MIC", "setting": "[1]; strain CDC75 (GCREF2013 023)", "value": 7.8, "unit": "ng/mL"},
      {"measurement": "MIC", "setting": "[1]; strain CDC76 (GCREF2013 024)", "value": 7.8, "unit": "ng/mL"},
      {"measurement": "MIC", "setting": "[1]; strain CDC77 (GCREF2013 025)", "value": 7.8, "unit": "ng/mL"},
      {"measurement": "MIC", "setting": "[1]; strain CDC78 (GCREF2013 026)", "value": 0.5, "unit": "ng/mL"},
      {"measurement": "MIC", "setting": "[1]; strain CDC79 (GCREF2013 027)", "value": 3.9, "unit": "ng/mL"},
      {"measurement": "MIC", "setting": "[1]; strain CDC80 (GCREF2013 028)", "value": 3.9, "unit": "ng/mL"},
      {"measurement": "MIC", "setting": "[1]; strain CDC81 (GCREF2013 029)", "value": 3.9, "unit": "ng/mL"},
      {"measurement": "MIC", "setting": "[1]; strain CDC82 (GCREF2013 031)", "value": 7.8, "unit": "ng/mL"},
      {"measurement": "MIC", "setting": "[1]; strain CDC83 (GCREF2013 032)", "value": 16, "unit": "ng/mL"},
      {"measurement": "MIC", "setting": "[1]; strain CDC84 (GCREF2013 033)", "value": 7.8, "unit": "ng/mL"},
      {"measurement": "MIC", "setting": "[1]; strain CDC86 (GCREF2013 035)", "value": 7.8, "unit": "ng/mL"},
      {"measurement": "MIC", "setting": "[1]; strain CDC87 (GCREF2013 036)", "value": 3.9, "unit": "ng/mL"},
      {"measurement": "MIC", "setting": "[1]; strain CDC88 (GCREF2013 037)", "value": 7.8, "unit": "ng/mL"},
      {"measurement": "MIC", "setting": "[1]; strain CDC89 (GCREF2013 038)", "value": 3.9, "unit": "ng/mL"},
      {"measurement": "MIC", "setting": "[1]; strain CDC90 (GCREF2013 039)", "value": 7.8, "unit": "ng/mL"},
      {"measurement": "MIC", "setting": "[1]; strain CDC91 (GCREF2013 040)", "value": 7.8, "unit": "ng/mL"},
      {"measurement": "MIC", "setting": "[1]; strain CDC92 (GCREF2013 041)", "value": 3.9, "unit": "ng/mL"},
      {"measurement": "MIC", "setting": "[1]; strain CDC93 (GCREF2013 042)", "value": 3.9, "unit": "ng/mL"},
      {"measurement": "MIC", "setting": "[1]; strain CDC94 (GCREF2013 043)", "value": 7.8, "unit": "ng/mL"},
      {"measurement": "MIC", "setting": "[1]; strain CDC95 (GCREF2013 045)", "value": 7.8, "unit": "ng/mL"},
      {"measurement": "MIC", "setting": "[1]; strain CDC96 (GCREF2013 046)", "value": 2, "unit": "ng/mL"},
      {"measurement": "MIC", "setting": "[1]; strain CDC97 (GCREF2013 047)", "value": 3.9, "unit": "ng/mL"},
      {"measurement": "MIC", "setting": "[1]; strain CDC98 (GCREF2013 048)", "value": 7.8, "unit": "ng/mL"},
      {"measurement": "MIC", "setting": "[1]; strain CDC99 (GCREF2013 012)", "value": 7.8, "unit": "ng/mL"},
      {"measurement": "MIC", "setting": "[1]; strain CDC100 (GCREF2013 015)", "value": 3.9, "unit": "ng/mL"},
      {"measurement": "MIC50", "setting": "[1]; 96 clinical isolates, read-out: MIC50", "value": 3.9, "unit": "ng/mL"},
      {"measurement": "MIC90", "setting": "[1]; 96 clinical isolates, read-out: MIC90", "value": 7.8, "unit": "ng/mL"},
      {"measurement": "MIC", "setting": "[2]; strain 2138", "value": "> 500", "unit": "ng/mL"},
      {"measurement": "MIC", "setting": "[2]; strain 2139", "value": 2, "unit": "ng/mL"},
      {"measurement": "MIC", "setting": "[2]; strain 2927", "value": 8, "unit": "ng/mL"},
      {"measurement": "MIC", "setting": "[2]; strain 2966", "value": 4, "unit": "ng/mL"},
      {"measurement": "MIC", "setting": "[2]; strain 2967", "value": 31, "unit": "ng/mL"},
      {"measurement": "MIC", "setting": "[2]; strain 3090", "value": "> 500", "unit": "ng/mL"},
      {"measurement": "MIC", "setting": "[2]; strain 3091", "value": 2, "unit": "ng/mL"},
      {"measurement": "MIC", "setting": "[2]; strain 3322", "value": 16, "unit": "ng/mL"},
      {"measurement": "MIC range", "setting": "[3]; N = 4", "value": "2 to 4", "unit": "ng/mL"},
      {"measurement": "MIC", "setting": "[3]; strain 9 25", "value": 4, "unit": "ng/mL"},
      {"measurement": "MIC", "setting": "[3]; strain 9 26", "value": 2, "unit": "ng/mL"},
      {"measurement": "MIC", "setting": "[3]; strain 9 27", "value": 2, "unit": "ng/mL"},
      {"measurement": "MIC", "setting": "[3]; strain 9 28", "value": 4, "unit": "ng/mL"},
      {"measurement": "microsomal CLint at 1 μM", "setting": "[4]; read-out: MLM Clint", "value": 11.9, "unit": "µL/min/mg"},
      {"measurement": "half-life at 1 μM", "setting": "[4]; read-out: MLM t1/2", "value": 0.97, "unit": "h"},
      {"measurement": "microsomal CLint at 1 μM", "setting": "[5]; pH 7.4, read-out: HLM Clint", "value": 2.1, "unit": "µL/min/mg"},
      {"measurement": "half-life at 1 μM", "setting": "[5]; pH 7.4, read-out: HLM t1/2", "value": 5.5, "unit": "h"},
      {"measurement": "spontaneous resistance frequency", "setting": "[6]", "value": "< 7.5 × 10^−4"},
      {"measurement": "spontaneous resistance frequency", "setting": "[7]", "value": "< 5.0 × 10^−9"},
      {"measurement": "IC50 at 3 min", "setting": "[8]", "value": "> 50", "unit": "µM"}
    ]}
  ]
}
